Measured values as given in patent publication US20090263838A1, “Method for determining a lung cancer treatment and method for determining the effectiveness of an agent for treatment of lung cancer” (Sanko Junyaku Co., Ltd., priority 2008, published 2009).
Like-named read-outs stand apart in the source and are kept apart here.

System: non-small cell lung cancer (NSCLC) patients
Procedure: Potential factors linked to survival such as age, gender, performance status, smoking history, tumor histology, number of prior chemotherapy regimen, and presence of distant metastasis were also reviewed for each patient. Pretreatment interstitial lung disease was diagnosed using a high resolution computed tomography scan of the chest by diagnostic radiologists blinded to any clinical information.
The tumor response was assessed as complete response (CR), partial response (PR), no change (NC), or progressive disease (PD) according to the World Health Organization Criteria.
The cut-off level of KL-6 was set at 500 U/ml based on the levels of healthy individuals as reported previously.
Genomic DNAs were extracted from frozen or paraffin embedded specimens and the mutational status of the EGFR tyrosine kinase domain (through exons 18 to 21) was examined by the direct sequence method as described previously. In brief, the PCR amplification for extracted DNAs was done using HotStarTaq DNA polymerase (Qiagen Inc., Valencia, Calif.) with the specific primers and PCR conditions. PCR products were incubated using ExoSAP-IT (Amersham Biosciences Corp., Piscataway, N.J.) and then it was sequenced directly using the Applied Biosystems PRISM dye terminator cycle sequencing method (Perkin-Elmer Corp., Foster City, Calif.) with ABI PRISM 3100 Genetic Analyzer (Applied Biosystems, Foster City, Calif.).
The associations between various clinical factors were evaluated using either the χ^2 test or the Fisher's exact test. […] The progression-free and overall survival times were both calculated using the Kaplan-Meier method; different groups were compared using the log-rank test. Associations of various factors with survival were evaluated using the backward stepwise Cox regression analysis. Differences were considered to be statistically significant if the p value was less than 0.05.

[1] = patients with elevated KL-6 (≧500 U/ml)
[2] = patients with normal range of KL-6

COc1cc2ncnc(Nc3ccc(F)c(Cl)c3)c2cc1OCCCN1CCOCC1 [gefitinib]
complete response (CR), number of patients (all 41 NSCLC patients): One
early discontinuance of gefitinib (less than 2 weeks) because of rapid tumor progression (all 41 NSCLC patients): 3 (7%) patients
no change (NC), number of patients (all 41 NSCLC patients): 20 patients
partial response (PR), number of patients (all 41 NSCLC patients): ten
progressive disease (PD), number of patients (all 41 NSCLC patients): 10 patients
overall objective response rate (all 41 NSCLC patients, gefitinib 250 mg daily oral, WHO criteria): 26.8%
1-year survival rate (all 41 patients): 61.0%
2-year survival rate (all 41 patients): 29.8%
median overall survival time (all 41 patients): 13.9 months
median progression-free survival time (all 41 patients): 4.7 months
severe interstitial lung disease or treatment-related death due to gefitinib treatment (all 41 patients, during the study period): neither severe interstitial lung disease nor treatment-related death occurred
overall survival (patients with an EGFR mutation): 17.8 months
median overall survival time [1]: 8.5 months
median progression-free survival time [1]: 2.1 months
response to gefitinib (patients with elevated serum KL-6 levels (≧500 U/ml)): 23%
median overall survival time [2]: 21.1 months
median progression-free survival time [2]: 5.8 months
overall survival (patients with wild-type EGFR): 8.5 months
median survival time (patients with wild-type EGFR and elevated serum KL-6): 6.5 months
median survival time (patients with wild-type EGFR and normal range of KL-6): 13.3 months
response to gefitinib (patients without elevated serum KL-6 levels): 32%
